In patent publication US7435820B2, “Substituted tetrahydro-1H-pyrazolo [3,4-c]pyridines compositions comprising them, and use” (Aventis Pharma S.A., priority 2003, dated 2008):
Like-named read-outs stand apart in the source and are kept apart here.

Assays:
human Tie2 = target: T1, human Tie2 (Homo sapiens, UniProt Q02763); test: Tie2 kinase inhibition: phosphorylation of GST-PLC (SH2-SH3 fragments) by GST-Tie2, 33P-ATP flashplate; type: biochemical; conditions: for Tie2 % Inhib at 10 μM (FRX) Assay 1: Assay 1, 10 µM; for Tie2 % Inhib at 10 μM (FRX) Assay 2: Assay 2, 10 µM
T1 construct: human Tie2 corresponding to amino acids 776-1124 of the intracellular domain was generated by PCR; made in house; host or cells: baculovirus expression system (vector pFastBacGT)
Description: The coding sequence of human Tie2 corresponding to amino acids 776-1124 of the intracellular domain was generated by PCR using the cDNA isolated from human placenta as model. This sequence was introduced into a baculovirus expression vector pFastBacGT in the form of a GST fusion protein.
The inhibitory effect of the molecules is determined in an assay for phosphorylation of PLC by Tie2 in the presence of GST-Tie2 purified to approximately 80% homogeneity. The substrate is made up of the SH2-SH3 fragments of PLC, the latter being expressed in the form of a GST fusion protein.
The kinase activity of Tie2 is measured in a 20 mM MOPS buffer, pH 7.2, containing 10 mM MgCl2, 10 mM MnCl2, 1 mM DTT and 10 mM of glycerophosphate. A reaction mixture made up of 70 μl of kinase buffer containing 100 ng of GST-Tie2 enzyme per well is placed in a flashplate 96-well plate kept on ice. 10 μl of the molecule to be tested, diluted in DMSO, at a concentration of at most 10% are then added. For a given concentration, each measurement is carried out in quadruplicate. The reaction is initiated by adding 20 μl of solution containing 2 μg of GST-PLC, 2 μM of cold ATP and 1 μCi of ^33P[ATP]. After incubation for 1 hour at 37° C., the reaction is stopped by adding 1 volume (100 μl) of 200 mM EDTA. After removal of the incubation buffer, the wells are washed three times with 300 μl of PBS. The radioactivity is measured on a Wallac MicroBeta 1450.
The inhibition of the Tie2 activity is calculated and expressed as percentage inhibition with respect to the control activity determined in the absence of compound.

human KDR enzyme = target: T2, human KDR enzyme (Homo sapiens, UniProt P35968); test: KDR kinase inhibition: phosphorylation of PLCγ SH2-SH3 substrate by KDR enzyme, 33P-ATP scintillation plate; type: biochemical
T2 construct: The cytoplasmic domain of the human KDR enzyme was cloned in GST fusion form; GST; made in house; host or cells: SF21 insect cells (baculovirus, pFastBac)
Description: The inhibitory effect of the compounds is determined in an assay for phosphorylation of substrate by the KDR enzyme in vitro using a scintillation technique (96-well plate, NEN).
The cytoplasmic domain of the human KDR enzyme was cloned in GST fusion form into the baculovirus expression vector pFastBac. The protein was expressed in SF21 cells and purified to approximately 60% homogeneity. The KDR kinase activity is measured in 20 mM MOPS, 10 mM MgCl2, 10 mM MnCl2, 1 mM DTT, 2.5 mM EGTA, 10 mM b-glycerophosphate, pH=7.2, in the presence of 10 mM MgCl2, 100 μM Na3VO4 and 1 mM NaF. 10 μl of the compound are added to 70 μl of kinase buffer containing 100 ng of KDR enzyme at 4° C. The reaction is initiated by adding 20 μl of solution containing 2 μg of substrate (SH2-SH3 fragment of PLCγ expressed in the form of an GST fusion protein), 2 μCi γ ^33P[ATP] and 2 μM cold ATP. After incubation for 1 hour at 37° C., the reaction is stopped by adding 1 volume (100 μl) of 200 mM EDTA. The incubation buffer is removed and the wells are washed three times with 300 μl of PBS. The radioactivity is measured in each well using a Top Count NXT (Packard) radioactivity counter.
The background noise is determined by measuring the radioactivity in four different wells containing the radioactive ATP and the substrate alone.
A total activity control is measured in four different wells containing all the reagents (γ^33P-[ATP], KDR and PLC-γ substrate) but in the absence of compound.
The inhibition of the KDR activity with the compound of the invention is expressed as percentage inhibition of the control activity determined in the absence of compound.
The compound SU5614 (Calbiochem) (1 μM) is included in each plate as inhibition control.

[1] = Assay 1, read-out: Tie2 % Inhib at 10 μM (FRX) Assay 1
[2] = Assay 2, read-out: Tie2 % Inhib at 10 μM (FRX) Assay 2
[3] = Assay 1, read-out: KDR % Inhib at 10 μM Assay 1
[4] = Assay 2, read-out: KDR % Inhib at 10 μM Assay 2

T1 sequence (Q02763 776-1124): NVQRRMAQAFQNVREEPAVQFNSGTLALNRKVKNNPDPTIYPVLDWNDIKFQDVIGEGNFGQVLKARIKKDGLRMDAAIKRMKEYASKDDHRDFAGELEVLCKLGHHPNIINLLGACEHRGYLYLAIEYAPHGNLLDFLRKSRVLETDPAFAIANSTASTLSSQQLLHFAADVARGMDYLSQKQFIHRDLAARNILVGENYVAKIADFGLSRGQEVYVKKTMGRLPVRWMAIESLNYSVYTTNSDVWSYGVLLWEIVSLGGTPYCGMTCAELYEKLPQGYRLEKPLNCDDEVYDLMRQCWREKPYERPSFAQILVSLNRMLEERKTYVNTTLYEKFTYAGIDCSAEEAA
T2 sequence (P35968 786-1356 limits assumed): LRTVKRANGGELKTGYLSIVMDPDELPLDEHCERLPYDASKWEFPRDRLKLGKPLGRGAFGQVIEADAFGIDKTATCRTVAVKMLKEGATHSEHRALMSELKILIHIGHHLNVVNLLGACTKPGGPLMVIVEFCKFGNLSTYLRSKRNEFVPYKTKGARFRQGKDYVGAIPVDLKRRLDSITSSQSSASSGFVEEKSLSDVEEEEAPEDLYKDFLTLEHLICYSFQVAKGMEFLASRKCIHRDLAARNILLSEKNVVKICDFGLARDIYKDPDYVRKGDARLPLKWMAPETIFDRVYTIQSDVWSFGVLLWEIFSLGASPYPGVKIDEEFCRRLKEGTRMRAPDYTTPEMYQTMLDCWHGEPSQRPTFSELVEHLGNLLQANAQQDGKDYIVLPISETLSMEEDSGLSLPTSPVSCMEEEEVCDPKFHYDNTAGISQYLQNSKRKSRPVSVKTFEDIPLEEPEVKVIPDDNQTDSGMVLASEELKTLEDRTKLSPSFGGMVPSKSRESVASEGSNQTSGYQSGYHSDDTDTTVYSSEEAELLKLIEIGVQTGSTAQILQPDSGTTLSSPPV

| inhibition at 10 µM (human Tie2; read-out: Tie2 % Inhib. 10 μM) [%] | inhibition at 10 µM (human KDR enzyme; read-out: KDR % Inhib. 10 μM) [%] | further results | SMILES |
| --- | --- | --- | --- |
| – | – | inhibition at 10 µM (human Tie2; [1]): 90.6%; inhibition at 10 µM (human Tie2; [2]): 87.9%; inhibition at 10 µM (human KDR enzyme; [3]): 42.3%; inhibition at 10 µM (human KDR enzyme; [4]): 28.7% | Cc1cc2nc(-c3[nH]nc4c3CCN(C(=O)c3ccccc3Nc3cccc(Cl)c3C)C4)[nH]c2cc1C [Example P-31375-112-10] |
| 85.9 | 63.3 | – | Cc1cc2nc(-c3[nH]nc4c3CCN(C(=O)Nc3cccs3)C4)[nH]c2cc1C [Chemistry 65] |
| 19.1 | 19.5 | – | Cc1cc2nc(-c3[nH]nc4c3CCN(C(=O)Nc3ccccc3C)C4)[nH]c2cc1C [Chemistry 68] |
| 91.5 | 46.5 | – | Cc1cc2nc(-c3[nH]nc4c3CCN(S(=O)(=O)c3cccc(Cl)c3)C4)[nH]c2cc1C [Chemistry 32] |
| 84.6 | 20.9 | – | COc1cccc(S(=O)(=O)N2CCc3c(n[nH]c3-c3nc4cc(C)c(C)cc4[nH]3)C2)c1 [Chemistry 38] |
| 97.9 | 30.9 | – | COc1ccccc1S(=O)(=O)N1CCc2c(-c3nc4cc(C)c(C)cc4[nH]3)n[nH]c2C1 [Chemistry 39] |
| 97.4 | 52.6 | – | Cc1cc2nc(-c3[nH]nc4c3CCN(C(=O)c3cccc(Cl)c3Cl)C4)[nH]c2cc1C [Chemistry 42] |
| – | – | inhibition at 10 µM (human Tie2; [1]): 83.1%; inhibition at 10 µM (human Tie2; [2]): 87.2%; inhibition at 10 µM (human KDR enzyme; [3]): 56.2%; inhibition at 10 µM (human KDR enzyme; [4]): 50.1% | Cc1cc2nc(-c3[nH]nc4c3CCN(C(=O)c3ccccc3Nc3cccc(C(F)(F)F)c3)C4)[nH]c2cc1C [Example P-31378-112-4] |
| 81.3 | 11.2 | – | Cc1cc2nc(-c3[nH]nc4c3CCN(C(=O)C(C)(C)C)C4)[nH]c2cc1C [Chemistry 54] |
| – | – | Tie2 % Inhib at 10 μM (FRX) Assay 1 (human Tie2): 92.6%; Tie2 % Inhib at 10 μM (FRX) Assay 2 (human Tie2): 92.6%; KDR % Inhib at 10 μM Assay 1 (human KDR enzyme): 98.1%; KDR % Inhib at 10 μM Assay 2 (human KDR enzyme): 97.4% | Cc1cc2nc(-c3[nH]nc4c3CCN(C(=O)c3ccccc3Nc3ccccc3)C4)[nH]c2cc1C [Example P-31378-112-2] |
| – | – | Tie2 % Inhib at 10 μM (FRX) Assay 1 (human Tie2): 78.7%; Tie2 % Inhib at 10 μM (FRX) Assay 2 (human Tie2): 79.1%; KDR % Inhib at 10 μM Assay 1 (human KDR enzyme): 59.0%; KDR % Inhib at 10 μM Assay 2 (human KDR enzyme): 56.5% | Cc1cc2nc(-c3[nH]nc4c3CCN(C(=O)c3ccccc3Nc3cccc(C(F)(F)F)c3)C4)[nH]c2cc1C [Example P-31378-112-3] |
| 87.7 | 78.5 | – | Cc1cc2nc(-c3[nH]nc4c3CCN(C(=O)c3cccc(Cl)c3)C4)[nH]c2cc1C [Chemistry 47] |
| 21 | 12.8 | – | Cc1cc2nc(-c3[nH]nc4c3CCN(C(=O)Nc3cccc(Cl)c3)C4)[nH]c2cc1C [Chemistry 62] |
| 3.75 | 12.7 | – | Cc1cc2nc(-c3[nH]nc4c3CCN(C(=O)Nc3ccccc3Cl)C4)[nH]c2cc1C [Chemistry 61] |
| – | – | inhibition at 10 µM (human Tie2; [1]): 88.7%; inhibition at 10 µM (human Tie2; [2]): 88.3%; inhibition at 10 µM (human KDR enzyme; [3]): 90.2%; inhibition at 10 µM (human KDR enzyme; [4]): 89.1% | Cc1cc2nc(-c3[nH]nc4c3CCN(C(=O)c3ccccc3NCc3ccco3)C4)[nH]c2cc1C [Example P-31378-112-16] |
| 68.1 | 17.9 | – | Cc1cc2nc(-c3[nH]nc4c3CCN(CCCc3ccccc3)C4)[nH]c2cc1C [Chemistry 19] |
| 82.3 | 27.9 | – | Cc1cc2nc(-c3[nH]nc4c3CCN(C(=O)c3ccc(S(C)(=O)=O)cc3)C4)[nH]c2cc1C [Chemistry 58] |
| – | – | inhibition at 10 µM (human Tie2; [1]): 82.6%; inhibition at 10 µM (human Tie2; [2]): 85.9%; inhibition at 10 µM (human KDR enzyme; [3]): 53.2%; inhibition at 10 µM (human KDR enzyme; [4]): 45.1% | Cc1cc2nc(-c3[nH]nc4c3CCN(C(=O)c3ccccc3OCc3ccccc3)C4)[nH]c2cc1C [Example P-31378-112-9] |
| 92.5 | 46.6 | – | CCCCC(=O)N1CCc2c(n[nH]c2-c2nc3cc(C)c(C)cc3[nH]2)C1 [Chemistry 56] |
| 95.9 | 57.7 | – | Cc1cc2nc(-c3[nH]nc4c3CCN(S(=O)(=O)Cc3ccc(F)cc3)C4)[nH]c2cc1C [Chemistry 33] |

| inhibition at 10 µM (human Tie2; read-out: Tie2 % Inhib. 10 μM) [%] | inhibition at 10 µM (human KDR enzyme; read-out: KDR % Inhib. 10 μM) [%] | further results | SMILES |
| --- | --- | --- | --- |
| 60.3 | 69 | – | Cc1cc2nc(-c3[nH]nc4c3CCN(Cc3ccc(Cl)cc3)C4)[nH]c2cc1C [Chemistry 12] |
| 84.8 | 12.2 | – | Cc1cc2nc(-c3[nH]nc4c3CCN(C(=O)CC(C)C)C4)[nH]c2cc1C [Chemistry 49] |
| 84.4 | 10.9 | – | Cc1cc2nc(-c3[nH]nc4c3CCN(C(=O)Cc3ccccc3)C4)[nH]c2cc1C [Chemistry 43] |
| 94.6 | 75.2 | – | Cc1cc2nc(-c3[nH]nc4c3CCN(C(=O)c3cccs3)C4)[nH]c2cc1C [Chemistry 57] |
| 24.9 | 3.65 | – | Cc1cc2nc(-c3[nH]nc4c3CCNC4)[nH]c2cc1C [Chemistry 22] |
| 90.8 | 49.4 | – | Cc1cc2nc(-c3[nH]nc4c3CCN(S(=O)(=O)c3ccccc3C)C4)[nH]c2cc1C [Chemistry 36] |
| 64.3 | 85.5 | – | Cc1cc2nc(-c3[nH]nc4c3CCN(Cc3ccccc3)C4)[nH]c2cc1C [Chemistry 8] |
| 90.8 | 41.1 | – | CC(=O)N1CCc2c(n[nH]c2-c2nc3cc(C)c(C)cc3[nH]2)C1 [Chemistry 44] |
| 96.7 | 73 | – | Cc1cc2nc(-c3[nH]nc4c3CCN(C(=O)c3ccccc3Cl)C4)[nH]c2cc1C [Chemistry 46] |
| 83.8 | 42 | – | Cc1cc2nc(-c3[nH]nc4c3CCN(C(=O)c3ccc(Cl)cc3)C4)[nH]c2cc1C [Chemistry 48] |
| 47.6 | 1.65 | – | CCCCN1CCc2c(n[nH]c2-c2nc3cc(C)c(C)cc3[nH]2)C1 [Chemistry 20] |
| 78.5 | 16.5 | – | CCS(=O)(=O)N1CCc2c(n[nH]c2-c2nc3cc(C)c(C)cc3[nH]2)C1 [Chemistry 28] |
| 65.4 | 22.9 | – | Cc1cc2nc(-c3[nH]nc4c3CCN(S(=O)(=O)CC(F)(F)F)C4)[nH]c2cc1C [Chemistry 27] |
| 41.2 | 2.1 | – | Cc1cc2nc(-c3[nH]nc4c3CCN(CC(C)C)C4)[nH]c2cc1C [Chemistry 6] |
| 88.3 | 41.2 | – | Cc1cccc(S(=O)(=O)N2CCc3c(n[nH]c3-c3nc4cc(C)c(C)cc4[nH]3)C2)c1 [Chemistry 37] |
| 69.4 | 39.3 | – | Cc1cc2nc(-c3[nH]nc4c3CCN(CC(C)(C)C)C4)[nH]c2cc1C [Chemistry 15] |
| 83.4 | 14.4 | – | Cc1cc2nc(-c3[nH]nc4c3CCN(C(=O)C(C)C)C4)[nH]c2cc1C [Chemistry 40] |
| 89.1 | 27.8 | – | Cc1cc2nc(-c3[nH]nc4c3CCN(S(=O)(=O)c3ccc(Cl)cc3)C4)[nH]c2cc1C [Chemistry 26] |
| 91.5 | 70.8 | – | Cc1cc2nc(-c3[nH]nc4c3CCN(S(=O)(=O)Cc3ccccc3)C4)[nH]c2cc1C [Chemistry 24] |
